From patent publication US8735406B2, “8-oxodihydropurine derivative” (Dainippon Sumitomo Pharma Co., Ltd., priority 2009, dated 2014)
Read-outs that look alike come from different tables or passages of the source.

Biological target: T1, FAAH (Rattus norvegicus, UniProt P97612)
T1 construct: Preparation of Rat Brain Membranes Preparations (FAAH Enzyme Solution); from tissue; host or cells: rat cerebrum (brain membrane preparation)
T1 sequence (P97612 1-579): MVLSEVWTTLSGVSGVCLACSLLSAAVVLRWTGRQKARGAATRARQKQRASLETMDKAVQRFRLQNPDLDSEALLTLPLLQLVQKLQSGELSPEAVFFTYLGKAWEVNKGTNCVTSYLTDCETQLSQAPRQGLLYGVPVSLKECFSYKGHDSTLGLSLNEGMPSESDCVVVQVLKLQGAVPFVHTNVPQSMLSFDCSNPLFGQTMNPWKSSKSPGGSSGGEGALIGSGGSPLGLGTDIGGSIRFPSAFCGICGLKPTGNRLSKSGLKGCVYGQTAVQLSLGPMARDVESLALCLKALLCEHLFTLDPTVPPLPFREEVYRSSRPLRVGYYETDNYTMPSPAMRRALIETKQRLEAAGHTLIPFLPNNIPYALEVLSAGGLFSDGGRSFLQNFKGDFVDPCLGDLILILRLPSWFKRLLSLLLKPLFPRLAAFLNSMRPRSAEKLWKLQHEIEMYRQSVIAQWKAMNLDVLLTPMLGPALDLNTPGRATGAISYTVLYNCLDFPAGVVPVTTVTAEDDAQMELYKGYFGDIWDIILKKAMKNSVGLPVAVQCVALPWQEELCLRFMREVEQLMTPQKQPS
Assay: Determination of FAAH inhibitory activity in rat (rat brain membrane preparations, [3H]-anandamide hydrolysis)
Format: biochemical
Settings: for IC50: read-out: FAAH Inhibition IC50
How it was run: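 Compounds tested from 0.1 nM to 1 μM to derive IC50 against FAAH hydrolysis in rat brain membrane preparations (100 μg/mL). A 10-min 37 °C preincubation was followed by 10 min with [3H]-anandamide (2 nM) mixed with 2 μM unlabelled anandamide. Radioactive ethanolamine was extracted into the water/methanol layer and counted.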

[1] = rat brain membrane preparations, 100 nM test substance, read-out: FAAH Inhibition, Inhibition Rate at 100 nM
[2] = rat brain membrane preparations, test substance 0.1 nM to 1 μM
[3] = read-out: FAAH Inhibition, Inhibition Rate at 100 nM

SMILES | inhibition at 0.1 µM [1] | IC50 [2] | inhibition at 0.1 µM [3] | inhibition at 0.1 µM (at 100 nM, rat brain membrane preparations, read-out: FAAH Inhibition Inhibition Rate at 100 nM) | IC50 (rat brain membrane preparations)
Cn1c(=O)n(C(=O)N2CCCC2)c2nc(/C=C/c3cccc(C(F)(F)F)c3)ncc21 [Example 244, 7-Methyl-9-(pyrrolidin-1-ylcarbonyl)-2-{(E)-2-[3-(trifluoromethyl)phenyl]ethenyl}-7,9-dihydro-8H-purine-8-one] | 86% | 11 nM | – | – | –
CN(C)C(=O)n1c(=O)n(C)c2cnc(COc3ccccc3OC(F)(F)F)nc21 [Example 430] | 80% | 24 nM | – | – | –
CN(C)C(=O)n1c(=O)n(C)c2cnc(-c3cccc(C(F)F)c3)nc21 [Example 332, 2-[3-(Difluoromethyl)phenyl]-N,N,7-trimethyl-8-oxo-7,8-dihydro-9H-purine-9-carboxamide] | 78% | 38 nM | – | – | –
Cc1cccc(OCc2ncc3c(n2)n(C(=O)N2CCC2)c(=O)n3C)c1 [Example 417] | 66% | 33 nM | – | – | –
Cc1cccc(-c2ncc3c(n2)n(C)c(=O)n3C(=O)N2CCCC2)c1 [Example 170, 9-Methyl-2-(3-methylphenyl)-7-(pyrrolidin-1-ylcarbonyl)-7,9-dihydro-8H-purine-8-one] | 98% | 7 nM | – | – | –
CCOc1cccc(-c2ncc3c(n2)n(C(=O)N2CCCC2)c(=O)n3C)c1 [Example 232, 2-(3-ethoxyphenyl)-7-methyl-9-(pyrrolidin-1-ylcarbonyl)-7,9-dihydro-8H-purine-8-one] | 101% | 20 nM | – | – | –
CCN(C)C(=O)n1c(=O)n(C)c2nc(-c3ccccc3)ncc21 [Example 2, N-ethyl-N,9-dimethyl-8-oxo-2-phenyl-8,9-dihydro-7H-purine-7-carboxamide] | 99% | 10 nM | – | – | –
Cn1c(=O)n(C(=O)N2CCCC2)c2nc(Cc3cccc(F)c3)ncc21 [Example 286, 2-(3-Fluorobenzyl)-7-methyl-9-(pyrrolidin-1-ylcarbonyl)-7,9-dihydro-8H-purine-8-one] | 86% | 59 nM | – | – | –
CCCOc1ccc(CCc2ncc3c(n2)n(C(=O)N(C)C)c(=O)n3C)cc1 [compound 501] | 103% | 10 nM | – | – | –
COc1cccc(-c2ncc3c(n2)n(C)c(=O)n3C(=O)N2CCN(Cc3ccc(C(F)(F)F)cc3)CC2)c1 [Example 89, 2-(3-Methoxyphenyl)-9-methyl-7-({4-[4-(trifluoromethyl)benzyl]piperazin-1-yl}carbonyl)-7,9-dihydro-8H-purine-8-one] | – | 44 nM | 92% | – | –
COc1cccc(-c2ncc3c(n2)n(C)c(=O)n3C(=O)N2CCN(Cc3ccc(F)cc3)CC2)c1 [Example 84, 7-{[4-(4-Fluorobenzyl)piperazin-1-yl]carbonyl}-2-(3-methoxyphenyl)-9-methyl-7,9-dihydro-8H-purine-8-one] | – | 13 nM | 98% | – | –
CCOc1cccc(-c2ncc3c(n2)n(C(=O)N(C)C)c(=O)n3C)c1 [compound 321] | 54% | – | – | – | –
Cn1c(=O)n(C(=O)N2CCC2)c2nc(COc3ccccc3OC(F)(F)F)ncc21 [Example 435] | 94% | 12 nM | – | – | –
O=C(N1CCCC1)n1c(=O)[nH]c2nc(-c3ccccc3)ncc21 [Example 301, 2-phenyl-7-(pyrrolidin-1-ylcarbonyl)-7,9-dihydro-8H-purine-8-one] | 90% | 23 nM | – | – | –
Cn1c(=O)n(C(=O)N2CCCCCC2)c2cnc(-c3ccccc3)nc21 [Example 41] | 33% | > 100 nM | – | – | –
Cn1c(=O)n(C(=O)N2CCCC2)c2nc(-c3ccc(OC(F)(F)F)cc3)ncc21 [Example 237, 7-Methyl-9-(pyrrolidin-1-ylcarbonyl)-2-[4-(trifluoromethoxy)phenyl]-7,9-dihydro-8H-purine-8-one] | 98% | 32 nM | – | – | –
COCCc1ncc2c(n1)n(C)c(=O)n2C(=O)N1CC(c2cccc(C(F)(F)F)c2)C1 [compound 393] | 101% | 10 nM | – | – | –
Cn1c(=O)n(C(=O)N2CCC2)c2cnc(Cc3ccc(F)cc3)nc21 [compound 373] | 90% | 17 nM | – | – | –
Cc1cccc(Cc2ncc3c(n2)n(C)c(=O)n3C(=O)N2CCCC2)c1 [Example 258, 9-Methyl-2-(3-methylbenzyl)-7-(pyrrolidin-1-ylcarbonyl)-7,9-dihydro-8H-purine-8-one] | 98% | 40 nM | – | – | –

SMILES | inhibition at 0.1 µM [1] | IC50 [2] | inhibition at 0.1 µM [3] | inhibition at 0.1 µM (at 100 nM, rat brain membrane preparations, read-out: FAAH Inhibition Inhibition Rate at 100 nM) | IC50 (rat brain membrane preparations)
Cc1cc(C)c(CCc2ncc3c(n2)n(C(=O)N(C)C)c(=O)n3C)c(C)c1 [compound 511] | 95% | 13 nM | – | – | –
CN(C)C(=O)n1c(=O)n(C)c2cnc(-c3ccc(OC(F)(F)F)cc3)nc21 [compound 318] | 90% | 27 nM | – | – | –
Cn1c(=O)n(C(=O)N2CCN(c3cccc(F)c3)CC2)c2cnc(-c3ccccc3)nc21 [Example 124, 7-{[4-(3-Fluorophenyl)piperazin-1-yl]carbonyl}-9-methyl-2-phenyl-7,9-dihydro-8H-purine-8-one] | 101% | 6 nM | – | – | –
COCc1ncc2c(n1)n(C)c(=O)n2C(=O)N1CC[C@H](Oc2ccc(Cl)cc2)C1 [Example 489, 7-{[(3S)-3-(4-Chlorophenoxy)pyrrolidin-1-yl]carbonyl}-2-(methoxymethyl)-9-methyl-7,9-dihydro-8H-purine-8-one] | 98% | 1 nM | – | – | –
COc1ccc(CCC2CCN(C(=O)n3c(=O)n(C)c4nc(-c5cccc(OC)c5)ncc43)CC2)cc1 [Example 118, 2-(3-Methoxyphenyl)-7-({4-[2-(4-methoxyphenyl)ethyl]piperidin-1-yl}carbonyl)-9-methyl-7,9-dihydro-8H-purine-8-one] | 103% | 5 nM | – | – | –
COc1ccc(N2CCN(C(=O)n3c(=O)n(C)c4nc(-c5ccccc5)ncc43)CC2)cc1 [Example 135, 7-{[4-(4-Methoxyphenyl)piperazin-1-yl]carbonyl}-9-methyl-2-phenyl-7,9-dihydro-8H-purine-8-one] | 99% | 5 nM | – | – | –
CC(=O)c1ccc(-c2ncc3c(n2)n(C)c(=O)n3C(=O)N2CCCC2)cc1 [compound 184] | 102% | 4 nM | – | – | –
Cn1c(=O)n(C(=O)N2CCCC2)c2nc(-c3cccc(C(F)(F)F)c3)ncc21 [Example 234, 7-Methyl-9-(pyrrolidin-1-ylcarbonyl)-2-[3-(trifluoromethyl)phenyl]-7,9-dihydro-8H-purine-8-one] | 100% | 9 nM | – | – | –
Cn1c(=O)n(C(=O)N2CCC2)c2nc(CCc3ccc(OC(F)(F)F)cc3)ncc21 [compound 609] | – | – | – | 108% | 4 nM
COCc1ncc2c(n1)n(C)c(=O)n2C(=O)N1CC[C@@H](Oc2ccccc2)C1 [Example 488, 2-(Methoxymethyl)-9-methyl-7-{[(3R)-3-phenoxypyrrolidin-1-yl]carbonyl}-7,9-dihydro-8H-purine-8-one] | 74% | 43 nM | – | – | –
Cn1c(=O)n(C(=O)N2CCCC2)c2nc(-c3ccc(F)cc3)ncc21 [Example 227, 2-(4-Fluorophenyl)-7-methyl-9-(pyrrolidin-1-ylcarbonyl)-7,9-dihydro-8H-purine-8-one] | 97% | 34 nM | – | – | –
CN(CCc1ccc(Cl)cc1)C(=O)n1c(=O)n(C)c2nc(-c3cccnc3)ncc21 [Example 145, N-[2-(4-Chlorophenyl)ethyl]-N,9-dimethyl-8-oxo-2-(pyridin-3-yl)-8,9-dihydro-7H-purine-7-carboxamide] | 100% | < 1 nM | – | – | –
CN(CCc1ccc(Cl)cc1)C(=O)n1c(=O)n(C)c2nc(C3CC3)ncc21 [Example 153, N-[2-(4-Chlorophenyl)ethyl]-2-cyclopropyl-N,9-dimethyl-8-oxo-8,9-dihydro-7H-purine-7-carboxamide] | 99% | 27 nM | – | – | –
COc1ccc(-c2ncc3c(n2)n(C(=O)N2CCCC2)c(=O)n3C)cc1 [Example 231, 2-(4-Methoxyphenyl)-7-methyl-9-(pyrrolidin-1-ylcarbonyl)-7,9-dihydro-8H-purine-8-one] | 91% | 51 nM | – | – | –
COCCCc1ncc2c(n1)n(C)c(=O)n2C(=O)N1CC(c2ccc(F)cc2)C1 [Example 381] | 84% | 8 nM | – | – | –
CN(C)C(=O)n1c(=O)n(C)c2cnc(CCc3ccccc3OC(F)(F)F)nc21 [compound 549] | 77% | 22 nM | – | – | –
CN(C)C(=O)n1c(=O)n(C)c2cnc(CCc3ccc(OC(F)F)cc3)nc21 [Example 493, 2-{2-[4-(difluoromethoxy)phenyl]ethyl}-N,N,7-trimethyl-8-oxo-7,8-dihydro-9H-purine-9-carboxamide] | 79% | 27 nM | – | – | –
Cn1c(=O)n(C(=O)N2CCC2)c2nc(COc3cccc(Cl)c3)ncc21 [Example 419] | 81% | 31 nM | – | – | –
